Like-named read-outs stand apart in the source and are kept apart here.

In one assay the test system is A-673 cells. In words: Cell viability, crystal violet staining. The format is cell-based. To be noted: Homo sapiens. Put shortly: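 Readout is absorbance at 570 nm of crystal violet, taken up in 0.1 M sodium citrate in 50% ethanol after staining with 0.5% dye in 25% methanol. Plates held 5×10^3 cells per well, and compounds were added one day after seeding for 72 hours. Data are relative to vehicle, mean±SE.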

In assay [1] the test system is FOXM1^A2 mRNA and FOXM1^BC mRNA. As to the kind of experiment: Splicing assay (FOXM1), qPCR of isoform mRNAs. Format: cell-based. In short, it runs like this:
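RT-qPCR read-out after 24 h compound exposure at 37° C., 0.2% DMSO, top dose 10 μM with 4-fold 8-point dilutions, 20,000 cells per well. Copy numbers from plasmid standard curves, PPIA-normalized, expressed as isoform ratio relative to DMSO.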
On the technique in general: Quantitative PCR measures a nucleic acid by following its amplification.

The mark [2] stands for this setting: A673, cell viability, read-out: A-673 IC50 (nM) Cell viability.
[3] abbreviates: FoxM1 BC mRNA decrease (exon included), read-out: Splice IC50 (nM) FoxM1 BC mRNA decrease (exon included).
The mark [4] stands for this setting: read-out: Splice EC50 (nM) FoxM1 A mRNA increase (exon excluded).
Where [5] appears, read: A673, cell viability, read-out: A-673 IC50 (nM), Cell viability.
The mark [6] stands for this setting: 24 h, FoxM1 BC mRNA decrease (exon included), 0.1-1000 nM, 24 hours, read-out: Splice IC50 (nM), FoxM1 BC mRNA decrease (exon included).
[7] abbreviates: FoxM1 A mRNA increase (exon excluded), 0.1-1000 nM, 24 hours, read-out: Splice EC50 (nM), FoxM1 A mRNA increase (exon excluded).

As to `CN(c1ccc(-c2cc3oc(=O)n(C)c3cc2O)nn1)[C@@H]1C[C@H]2CC[C@@H](C1)N2` [compound 164, 6-(6-(((1R,3s,5S)-8-azabicyclo[3.2.1]octan-3-yl)(methyl)amino)pyridazin-3-yl)-5-hydroxy-3-methylbenzo[d]oxazol-2(3H)-one], the IC50 in the assay on A-673 cells (setting [2]) is 251 to 500 nM; in assay [1] (setting [3]) it was 10 to 100 nM. Also, in assay [1] (setting [4]), the EC50 (in general, the midpoint of the concentration-response curve) fell in the range of 10 to 100 nM.
Regarding `CN(c1ccc(-c2ccc(-c3cnn(C)c(=O)c3)cc2O)nn1)[C@H]1C[C@]2(C)CC[C@](C)(C1)N2` [compound 170, 5-(4-(6-(((1R,3s,5S)-1,5-dimethyl-8-azabicyclo[3.2.1]octan-3-yl)(methyl)amino)pyridazin-3-yl)-3-hydroxyphenyl)-2-methylpyridazin-3(2H)-one], the IC50 (in the assay with A-673 cells (setting [2]); in assay [1] (setting [3])) was less than 10 nM in each case. In addition, the EC50 in assay [1] (setting [4]) is less than 10 nM.
Turning to `CN(c1ccc(-c2ccc(-c3ccn(C)c(=O)n3)cc2O)nn1)[C@H]1C[C@]2(C)CC[C@](C)(C1)N2` [compound 180, 4-(4-(6-(((1R,3s,5S)-1,5-dimethyl-8-azabicyclo[3.2.1]octan-3-yl)(methyl)amino)pyridazin-3-yl)-3-hydroxyphenyl)-1-methylpyrimidin-2(1H)-one], the values for the IC50 (in the assay with A-673 cells (setting [2]); in assay [1] (setting [3])) were 101 to 250 nM and 10 to 100 nM, respectively. Also, the EC50 in assay [1] (setting [4]) was 10 to 100 nM.
As for `Cc1cc(-c2ccc(N(C)[C@H]3C[C@]4(C)CC[C@](C)(C3)N4)nn2)c(O)cc1-c1cn[nH]c1` [compound 182, 2-(6-(((1R,3s,5S)-1,5-dimethyl-8-azabicyclo[3.2.1]octan-3-yl)(methyl)amino)pyridazin-3-yl)-4-methyl-5-(1H-pyrazol-4-yl)phenol], the figures for the IC50 (with A-673 cells (setting [2]); in assay [1] (setting [3])) were 10 to 100 nM and less than 10 nM, respectively. Also, in assay [1] (setting [4]), the EC50 was less than 10 nM.
As for `CN(c1ccc(-c2ccc(-c3cnn(C(F)(F)F)c3)cc2O)nn1)[C@H]1C[C@]2(C)CC[C@](C)(C1)N2` [compound 186, 2-(6-(((1R,3s,5S)-1,5-dimethyl-8-azabicyclo[3.2.1]octan-3-yl)(methyl)amino)pyridazin-3-yl)-5-(1-(trifluoromethyl)-1H-pyrazol-4-yl)phenol], the results for the IC50 (in the assay on A-673 cells (setting [2]); in assay [1] (setting [3])) were greater than 1000 nM and 101 to 250 nM, respectively. Moreover, the EC50 in assay [1] (setting [4]) lay in the range of 10 to 100 nM.
For `CN(c1ccc(-c2ccc(-c3ccn(CF)c(=O)c3)cc2O)nn1)[C@H]1C[C@]2(C)CC[C@](C)(C1)N2` [compound 187, 4-(4-(6-(((1R,3s,5S)-1,5-dimethyl-8-azabicyclo[3.2.1]octan-3-yl)(methyl)amino)pyridazin-3-yl)-3-hydroxyphenyl)-1-(fluoromethyl)pyridin-2(1H)-one], in that order: 10 to 100 nM, less than 10 nM and less than 10 nM.
For `CNC(=O)c1cc2cc(O)c(-c3ccc(N(C)[C@H]4C[C@]5(C)CC[C@](C)(C4)N5)nn3)cc2o1` [compound 188, 6-(6-(((1R,3s,5S)-1,5-dimethyl-8-azabicyclo[3.2.1]octan-3-yl)(methyl)amino)pyridazin-3-yl)-5-hydroxy-N-methylbenzofuran-2-carboxamide], in that order: 10 to 100 nM, 10 to 100 nM and less than 10 nM.
On to `COc1cc(-c2ccc(-c3ccc(N(C)[C@H]4C[C@]5(C)CC[C@](C)(C4)N5)nn3)c(O)c2)cnn1` [compound 191, 2-(6-(((1R,3s,5S)-1,5-dimethyl-8-azabicyclo[3.2.1]octan-3-yl)(methyl)amino)pyridazin-3-yl)-5-(6-methoxypyridazin-4-yl)phenol], for which the IC50 with A-673 cells (setting [2]) was less than 10 nM; in the assay on A-673 cells (A673, read-out: A-673 cell viability (IC50)) it was less than 1 nM; in assay [1] (Homo sapiens, A673, 24 h, A-673 cells, 24 hours, table does not say EC50 or IC50, read-out: FOXM1), less than 1 nM; in assay [1] (Homo sapiens, A-375, 24 h, A-375 cells, 24 hours, table does not say EC50 or IC50, read-out: FOXM1), 1 to 10 nM; in assay [1] (Homo sapiens, K562, 24 h, K-562 cells, 24 hours, table does not say EC50 or IC50, read-out: FOXM1), 1 to 10 nM; in assay [1] (Homo sapiens, MDA-MB-468, 24 h, MDA-MB-468 cells, 24 hours, table does not say EC50 or IC50, read-out: FOXM1), 1 to 10 nM. In addition, the IC50 in assay [1] (Homo sapiens, NCI-H358, 24 h, NCI-H358 cells, 24 hours, table does not say EC50 or IC50, read-out: FOXM1) was in the range of 1 to 10 nM; in assay [1] (Homo sapiens, PANC-1, 24 h, PANC-1 cells, 24 hours, table does not say EC50 or IC50, read-out: FOXM1), 101 to 200 nM; in assay [1] (Homo sapiens, PC-3, 24 h, PC-3 cells, 24 hours, table does not say EC50 or IC50, read-out: FOXM1), 11 to 100 nM; in assay [1] (Homo sapiens, U-87 MG, 24 h, U-87MG cells, 24 hours, table does not say EC50 or IC50, read-out: FOXM1), 11 to 100 nM.
`CNC(=O)c1cc2cc(-c3ccc(N(C)[C@H]4C[C@]5(C)CC[C@](C)(C4)N5)nn3)c(O)cc2o1` [compound 192, 5-(6-(((1R,3s,5S)-1,5-dimethyl-8-azabicyclo[3.2.1]octan-3-yl)(methyl)amino)pyridazin-3-yl)-6-hydroxy-N-methylbenzofuran-2-carboxamide]: the IC50 is 10 to 100 nM in the assay with A-673 cells (setting [2]) and less than 10 nM in assay [1] (setting [3]). In assay [1] (setting [4]), the EC50 is less than 10 nM.
For the molecule `Cc1nnc(-c2ccc(-c3ccc(N(C)[C@@H]4C[C@H]5CC[C@@H](C4)N5)nn3)c(O)c2)o1` [compound 219, 2-(6-(((1R,3s,5S)-8-azabicyclo[3.2.1]octan-3-yl)(methyl)amino)pyridazin-3-yl)-5-(5-methyl-1,3,4-oxadiazol-2-yl)phenol], the IC50 in the assay on A-673 cells (setting [5]) is greater than 1000 nM; in assay [1] (setting [6]) it was 10 to 100 nM. The 50% effective concentration (EC50) in assay [1] (setting [7]) was in the range of 10 to 100 nM.
For the molecule `CN(c1ccc(-c2ccc(-n3cccn3)cc2O)nn1)[C@@H]1C[C@H]2CC[C@@H](C1)N2` [compound 220, 2-(6-(((1R,3s,5S)-8-azabicyclo[3.2.1]octan-3-yl)(methyl)amino)pyridazin-3-yl)-5-(1H-pyrazol-1-yl)phenol], the IC50 (in the assay on A-673 cells (setting [5]); in assay [1] (setting [6])) was 10 to 100 nM in each case. The EC50 in assay [1] (setting [7]) was less than 10 nM.
Regarding `Cc1cnn(-c2ccc(-c3ccc(N(C)[C@@H]4C[C@H]5CC[C@@H](C4)N5)nn3)c(O)c2)c1` [compound 221, 2-(6-(((1R,3s,5S)-8-azabicyclo[3.2.1]octan-3-yl)(methyl)amino)pyridazin-3-yl)-5-(4-methyl-1H-pyrazol-1-yl)phenol], the values for the IC50 (in the assay on A-673 cells (setting [5]); in assay [1] (setting [6])) were 101 to 250 nM and 10 to 100 nM, respectively. Also, in assay [1] (setting [7]), the EC50 was in the range of 10 to 100 nM.
As to `Cc1ccn(-c2ccc(-c3ccc(N(C)[C@@H]4C[C@H]5CC[C@@H](C4)N5)nn3)c(O)c2)n1` [compound 222, 2-(6-(((1R,3s,5S)-8-azabicyclo[3.2.1]octan-3-yl)(methyl)amino)pyridazin-3-yl)-5-(3-methyl-1H-pyrazol-1-yl)phenol], the IC50 (with A-673 cells (setting [5]); in assay [1] (setting [6])) was 10 to 100 nM in each case. Also, the EC50 in assay [1] (setting [7]) is less than 10 nM.
For the molecule `CN(c1ccc(-c2ccc(-n3ccnn3)cc2O)nn1)[C@@H]1C[C@H]2CC[C@@H](C1)N2` [compound 224, 2-(6-(((1R,3s,5S)-8-azabicyclo[3.2.1]octan-3-yl)(methyl)amino)pyridazin-3-yl)-5-(1H-1,2,3-triazol-1-yl)phenol], the IC50 in the assay on A-673 cells (setting [5]) was 101 to 250 nM; in assay [1] (setting [6]), 10 to 100 nM. Further, the EC50 in assay [1] (setting [7]) is less than 10 nM.
The corresponding values for `Cc1cn(-c2ccc(-c3ccc(N(C)[C@@H]4C[C@H]5CC[C@@H](C4)N5)nn3)c(O)c2)nn1` [compound 225, 2-(6-(((1R,3s,5S)-8-azabicyclo[3.2.1]octan-3-yl)(methyl)amino)pyridazin-3-yl)-5-(4-methyl-1H-1,2,3-triazol-1-yl)phenol] are 10 to 100 nM, 10 to 100 nM and 10 to 100 nM.
The corresponding values for `CN(c1ccc(-c2ccc(-c3c[nH]nn3)cc2O)nn1)[C@@H]1C[C@H]2CC[C@@H](C1)N2` [compound 226, 2-(6-(((1R,3s,5S)-8-azabicyclo[3.2.1]octan-3-yl)(methyl)amino)pyridazin-3-yl)-5-(1H-1,2,3-triazol-4-yl)phenol] are 101 to 250 nM, 10 to 100 nM and 10 to 100 nM.
The corresponding values for `CN(c1ccc(-c2ccc(-c3nnn[nH]3)cc2O)nn1)[C@@H]1C[C@H]2CC[C@@H](C1)N2` [compound 227, 2-(6-(((1R,3s,5S)-8-azabicyclo[3.2.1]octan-3-yl)(methyl)amino)pyridazin-3-yl)-5-(1H-tetrazol-5-yl)phenol] are greater than 1000 nM, greater than 1000 nM and greater than 1000 nM.
On to `Cc1cc(-c2ccc(-c3ccc(N(C)[C@@H]4C[C@H]5CC[C@@H](C4)N5)nn3)c(O)c2)on1` [compound 229, 2-(6-(((1R,3s,5S)-8-azabicyclo[3.2.1]octan-3-yl)(methyl)amino)pyridazin-3-yl)-5-(3-methylisoxazol-5-yl)phenol], for which the IC50 (in the assay on A-673 cells (setting [5]); in assay [1] (setting [6])) was greater than 1000 nM throughout. Moreover, the EC50 in assay [1] (setting [7]) is greater than 1000 nM.
Take `Cc1nccn1-c1ccc(-c2ccc(N(C)[C@@H]3C[C@H]4CC[C@@H](C3)N4)nn2)c(O)c1` [compound 230, 2-(6-(((1R,3s,5S)-8-azabicyclo[3.2.1]octan-3-yl)(methyl)amino)pyridazin-3-yl)-5-(2-methyl-1H-imidazol-1-yl)phenol]: the figures for the IC50 (in the assay with A-673 cells (setting [5]); in assay [1] (setting [6])) were greater than 1000 nM and 501 to 1000 nM, respectively. The EC50 in assay [1] (setting [7]) fell in the range of 101 to 250 nM.

(Values after patent US11008572B2, “Methods and compositions for modulating splicing” (SKYHAWK THERAPEUTICS, INC., priority 2017, dated 2021).)
